Assay results published in publication PMC11927960, “Multiparameter ranking of carbazoles for anti-trypanosome lead discovery” (Frontiers in drug discovery, 2024).

Legend:
in vivo = details: both sexes, mouse, oral, Swiss Webster mice, 10 consecutive days, read-out: Repeated maximum tolerated dose (rMTD)
Method: Maximum tolerated dose of compounds in mice.
To determine a single maximum tolerated dose (sMTD), male and female Swiss Webster mice were first given a single 50 mg/kg dose of compound formulated in N-methyl-2-pyrrolidone (10% v/v) and 0.2% hydroxypropyl methylcellulose (90% v/v). Mice were monitored daily for up to 7 days post-administration for overall condition using a Total Condition Scoring (TCS) system (Supplementary Table S1) and body weight changes. If greater than 20% body weight loss was recorded, the dose was lowered in two-fold amounts in subsequent tests. […] When no toxicity was observed, sMTD values were utilized to determine the repetitive maximum tolerated dose (rMTD). Male and female Swiss-Webster mice were treated with sMTD for 10 consecutive days. […] If adverse effects were recorded, the daily doses were reduced two-fold in follow-up work. At the end of the study, mice were euthanized by CO2 asphyxiation followed by cervical dislocation.

T. brucei AnTat1.1 = experiment: Treatment of chronic HAT in a mouse model of disease; assay type: in vivo, Trypanosoma brucei in Swiss-Webster mice; details: for Mean parasitemia on day 7 post-infection: CBL0174 60 mg/kg, CBL0187 50 mg/kg orally from day 3, vehicle 1.64 × 10^7; for Outcome in chronic HAT mouse model: oral, CBL0137 40 mg/kg days 2-5, 8-11, 14, 15, CBL0174 60 mg/kg and CBL0187 50 mg/kg days 3-9
Method: Mice were each infected intraperitoneally with Trypanosoma brucei AnTat1.1 (10^4). […] (B) CBL0174 and CBL0187: Groups V, B, and D were given vehicle, CBL0174 (60 mg/kg) and CBL0187 (50 mg/kg), respectively, from day 3 through 9. Different shapes represent individual mice, and horizontal lines in each group denote mean parasitemia determined with a hemocytometer. UND = undetectable; DPI = days post-infection.
Treatment of chronic HAT in a mouse model of disease
Drug efficacy studies in a mouse model of HAT were conducted following recommendations in the “Guide for the Care and Use of Laboratory Animals” of the National Institutes of Health. The protocol was approved by the Institutional Animal Care and Use Committee (IACUC) at the University of Georgia. After the study, the mice were euthanized by CO2 asphyxiation followed by incision to form a bilateral pneumothorax, as approved by the American Veterinary Association.
Female Swiss-Webster mice (20–25 g; 8–10 weeks old) were acclimatized for 1 week before the commencement of the study. […] Parasites in blood collected from a tail venipuncture and diluted 8-fold in RBC lysis buffer (Qiagen) were monitored with a hemocytometer (Neubauer Bright-line). During the study, mice with parasitemia above 10^8 trypanosomes/mL were euthanized for humane reasons. Mice without parasitemia for 90 days were considered cured.

T. brucei Lister427 = experiment: Trypanosome proliferation inhibition assay (SYBR Green, 48 h); assay type: cell-based; details: Trypanosoma brucei; continuous exposure 48 h, 4 × 10^3 trypanosomes/mL
Method: Trypanosome proliferation inhibition assays
T. b. Lister 427 or T. b. AnTat1.1 were seeded at 4 × 10^3 cells/mL or 2 × 10^3 cells/mL (in 50 μL culture medium), respectively, into 384-well black plate (Greiner; Frickenhausen, Germany) and treated with serial dilutions of each compound in duplicate. Plates were incubated for 48 h at 37 °C and 5% CO2. […] Fluorescence in lysates was quantitated with a fluorometer (Fluoroskan Ascent Microplate Fluorometer, Thermo Scientific) (100 ms; ex: 485 nm, em: 538 nm). Each experiment was performed in triplicate.

T. brucei Lister 427 = experiment: Effect of 50% serum on curaxin inhibition of trypanosome proliferation; assay type: cell-based, Trypanosoma brucei; details: 20, 35 or 50% FBS; Figure S3
Method: HMI-9 medium ([Hirumi and Hirumi, 1989]) was prepared with different final concentrations of fetal bovine serum (FBS) (20, 35, and 50%). T. brucei Lister 427 was cultured in each medium for at least 7 days. […] EC50 measurements were obtained from three independent experiments in each medium.
containing 20%, 35% or 50% FBS
At 0 h, 4x103 trypanosomes/ml in
media with drug; 37°C, 5% CO2
Cells lysed and SYBR green
Hirumi, 1989) was modified to contain 20, 35, or 50% fetal bovine serum (FBS) (total
concentration). T. b. brucei Lister 427 was first cultured in the medium for 7 days.
(50 µL). Plates were incubated for 48 h at 37 °C and 5% CO2, and the proliferation of
trypanosomes was measured using a SYBR green assay (Faria et al., 2015). Each experiment
was performed thrice, and non-linear regression fits to the data were obtained using GraphPad
Prism which was used to calculate EC50 values. The possible statistical significance of the
FBS-medium (control) was determined by Student’s T-test.

Row | Structure (SMILES) | MTD at 10 days (in vivo) | Mean parasitemia on day 7 post-infection (T. brucei AnTat1.1) | Outcome in chronic HAT mouse model (T. brucei AnTat1.1) | EC50 (T. brucei Lister427) | Effect of serum on anti-trypanosome potency (T. brucei Lister 427)
1 | CC(=O)c1cc2c3cc(C(C)=O)c(O)cc3n(CCCN(C)C)c2cc1O [CBL0174, 1-[6-acetyl-9-[3-(dimethylamino)propyl]-2,7-dihydroxy-carbazol-3-yl]ethanone] | 60 mg/kg | 8.22 × 10^7 ± 6.64 × 10^6 trypanosomes/mL | failed to control parasitemia | 21 nM | –
2 | CC(=O)c1cc2c3cc(C(C)=O)c(O)cc3n(CCNC(C)C)c2cc1O [CBL0187, 1-[6-acetyl-2,7-dihydroxy-9-[2-(isopropylamino)ethyl]carbazol-3-yl]ethanone] | 50 mg/kg | 8.99 × 10^7 ± 2.43 × 10^7 trypanosomes/mL | failed to control parasitemia | 8.9 nM | decreases
